Data taken from the NIST ThermoML archive (doi:10.1016/j.jct.2005.10.004).
Several values for one entry are separate records, joined by “and”; a condition that tells them apart may be missing. Identical values can stand only once.

Test: xn = mol fraction of the nth substance listed
Conditions: Gas, Buoyancy - hydrostatic balance with magnetic suspension - one sinker

N#N [nitrogen] + C
Conditions | mass density
240 K, 2107.5 kPa, x2 = 0.8998 | 19.5904 kg/m3 and 19.5908 kg/m3
240 K, 4055.5 kPa, x2 = 0.8998 | 40.6283 kg/m3
240 K, 8017.2 kPa, x2 = 0.8 | 96.5565 kg/m3
240 K, 8864.8 kPa, x2 = 0.8 | 109.578 kg/m3
240 K, 12048 kPa, x2 = 0.8 | 159.33 kg/m3
240 K, 13511 kPa, x2 = 0.8998 | 181.648 kg/m3
240.01 K, 1951.7 kPa, x2 = 0.8 | 19.1493 kg/m3 and 19.149 kg/m3
240.01 K, 3991.5 kPa, x2 = 0.8 | 41.8987 kg/m3
240.01 K, 3991.7 kPa, x2 = 0.8 | 41.901 kg/m3
240.01 K, 6011.9 kPa, x2 = 0.8 | 67.6707 kg/m3
240.01 K, 6012.2 kPa, x2 = 0.8 | 67.6768 kg/m3
240.01 K, 7076 kPa, x2 = 0.8 | 82.6152 kg/m3
240.01 K, 8017.6 kPa, x2 = 0.8 | 96.5609 kg/m3
240.01 K, 8026.3 kPa, x2 = 0.8998 | 94.9591 kg/m3
240.01 K, 10028 kPa, x2 = 0.8998 | 127.626 kg/m3
240.01 K, 10029 kPa, x2 = 0.8998 | 127.633 kg/m3
240.01 K, 10372 kPa, x2 = 0.8 | 133.317 kg/m3 and 133.315 kg/m3
240.01 K, 12048 kPa, x2 = 0.8 | 159.332 kg/m3
240.01 K, 12090 kPa, x2 = 0.8998 | 160.982 kg/m3
240.01 K, 13638 kPa, x2 = 0.8 | 182.319 kg/m3
240.01 K, 15026 kPa, x2 = 0.8998 | 200.798 kg/m3
240.02 K, 6035.6 kPa, x2 = 0.8998 | 65.6527 kg/m3
249.91 K, 2443.9 kPa, x2 = 0.8 | 23.1504 kg/m3
249.91 K, 2444.1 kPa, x2 = 0.8 | 23.1522 kg/m3
249.91 K, 2444.9 kPa, x2 = 0.8 | 23.1598 kg/m3
249.91 K, 5015.8 kPa, x2 = 0.8 | 51.0598 kg/m3
249.91 K, 5016 kPa, x2 = 0.8 | 51.0618 kg/m3
249.91 K, 7570.5 kPa, x2 = 0.8 | 82.6548 kg/m3
249.92 K, 7570.8 kPa, x2 = 0.8 | 82.6605 kg/m3
249.92 K, 8909.9 kPa, x2 = 0.8 | 100.551 kg/m3
249.92 K, 8910.5 kPa, x2 = 0.8 | 100.56 kg/m3
249.92 K, 8911 kPa, x2 = 0.8 | 100.565 kg/m3
249.93 K, 10917 kPa, x2 = 0.8 | 128.204 kg/m3
249.93 K, 12900 kPa, x2 = 0.8 | 155.107 kg/m3
249.93 K, 12901 kPa, x2 = 0.8 | 155.123 kg/m3
249.93 K, 14257 kPa, x2 = 0.8 | 172.455 kg/m3
249.93 K, 14258 kPa, x2 = 0.8 | 172.479 kg/m3
249.93 K, 16938 kPa, x2 = 0.8 | 202.973 kg/m3
249.93 K, 16952 kPa, x2 = 0.8 | 203.124 kg/m3
249.94 K, 9596 kPa, x2 = 0.8 | 109.925 kg/m3
249.94 K, 10910 kPa, x2 = 0.8 | 128.101 kg/m3
249.99 K, 2003.4 kPa, x2 = 0.8998 | 17.6409 kg/m3
249.99 K, 2056.7 kPa, x2 = 0.8 | 19.2703 kg/m3
249.99 K, 3994.1 kPa, x2 = 0.8998 | 37.4833 kg/m3
249.99 K, 3994.2 kPa, x2 = 0.8998 | 37.4837 kg/m3
249.99 K, 4008 kPa, x2 = 0.8 | 39.6397 kg/m3
249.99 K, 6005.8 kPa, x2 = 0.8998 | 60.2899 kg/m3
249.99 K, 6017.6 kPa, x2 = 0.8 | 62.9683 kg/m3
249.99 K, 7544.1 kPa, x2 = 0.8 | 82.2685 kg/m3
249.99 K, 7544.6 kPa, x2 = 0.8 | 82.2725 kg/m3
249.99 K, 8074.6 kPa, x2 = 0.8998 | 86.7809 kg/m3
249.99 K, 8074.9 kPa, x2 = 0.8998 | 86.7846 kg/m3
249.99 K, 8075.1 kPa, x2 = 0.8998 | 86.7862 kg/m3
249.99 K, 10120 kPa, x2 = 0.8998 | 115.3 kg/m3
249.99 K, 10121 kPa, x2 = 0.8 | 117.092 kg/m3
249.99 K, 12763 kPa, x2 = 0.8998 | 152.294 kg/m3
249.99 K, 13368 kPa, x2 = 0.8 | 161.09 kg/m3
249.99 K, 13369 kPa, x2 = 0.8 | 161.093 kg/m3
250 K, 1972.2 kPa, x2 = 0.8998 | 17.3493 kg/m3
250 K, 2229 kPa, x2 = 0.8998 | 19.7632 kg/m3
250 K, 12762 kPa, x2 = 0.8998 | 152.28 kg/m3 and 152.282 kg/m3
250 K, 15168 kPa, x2 = 0.8998 | 182.264 kg/m3
250 K, 18609 kPa, x2 = 0.8998 | 216.303 kg/m3
274.8 K, 11276 kPa, x2 = 0.8 | 109.07 kg/m3
274.81 K, 2552.2 kPa, x2 = 0.8 | 21.5902 kg/m3
274.81 K, 2552.3 kPa, x2 = 0.8 | 21.5893 kg/m3
274.81 K, 5055.3 kPa, x2 = 0.8 | 44.7483 kg/m3
274.81 K, 5055.4 kPa, x2 = 0.8 | 44.7496 kg/m3
274.81 K, 7550.3 kPa, x2 = 0.8 | 69.666 kg/m3 and 69.6651 kg/m3
274.81 K, 7562.1 kPa, x2 = 0.8 | 69.788 kg/m3
274.81 K, 7562.6 kPa, x2 = 0.8 | 69.7929 kg/m3
274.81 K, 9501.7 kPa, x2 = 0.8 | 90.1191 kg/m3
274.81 K, 9502.3 kPa, x2 = 0.8 | 90.1254 kg/m3
274.81 K, 10330 kPa, x2 = 0.8 | 98.956 kg/m3
274.81 K, 10337 kPa, x2 = 0.8 | 99.0305 kg/m3
274.81 K, 11275 kPa, x2 = 0.8 | 109.063 kg/m3
274.81 K, 12889 kPa, x2 = 0.8 | 126.201 kg/m3
274.81 K, 12890 kPa, x2 = 0.8 | 126.206 kg/m3
274.81 K, 14325 kPa, x2 = 0.8 | 141.105 kg/m3
274.81 K, 14327 kPa, x2 = 0.8 | 141.128 kg/m3
274.81 K, 15731 kPa, x2 = 0.8 | 155.191 kg/m3
274.81 K, 15733 kPa, x2 = 0.8 | 155.216 kg/m3
274.81 K, 16797 kPa, x2 = 0.8 | 165.435 kg/m3
274.81 K, 16816 kPa, x2 = 0.8 | 165.609 kg/m3
274.82 K, 8425.3 kPa, x2 = 0.8 | 78.7622 kg/m3
274.82 K, 9439.5 kPa, x2 = 0.8 | 89.4646 kg/m3
274.82 K, 11275 kPa, x2 = 0.8 | 109.065 kg/m3
274.82 K, 11277 kPa, x2 = 0.8 | 109.088 kg/m3
274.82 K, 12811 kPa, x2 = 0.8 | 125.374 kg/m3
274.99 K, 2012.7 kPa, x2 = 0.8 | 16.8448 kg/m3
274.99 K, 2211 kPa, x2 = 0.8998 | 17.4645 kg/m3
274.99 K, 4076.7 kPa, x2 = 0.8 | 35.4308 kg/m3
274.99 K, 6021.2 kPa, x2 = 0.8 | 54.1463 kg/m3
274.99 K, 6055.4 kPa, x2 = 0.8998 | 51.8525 kg/m3
274.99 K, 8019.2 kPa, x2 = 0.8 | 74.4425 kg/m3
274.99 K, 10017 kPa, x2 = 0.8 | 95.4954 kg/m3
274.99 K, 11989 kPa, x2 = 0.8 | 116.514 kg/m3 and 116.518 kg/m3
274.99 K, 14080 kPa, x2 = 0.8 | 138.416 kg/m3
274.99 K, 15091 kPa, x2 = 0.8998 | 145.151 kg/m3
274.99 K, 15497 kPa, x2 = 0.8 | 152.681 kg/m3
274.99 K, 16131 kPa, x2 = 0.8 | 158.862 kg/m3 and 158.861 kg/m3
274.99 K, 16805 kPa, x2 = 0.8998 | 161.533 kg/m3 and 161.536 kg/m3
274.99 K, 17724 kPa, x2 = 0.8998 | 169.816 kg/m3
274.99 K, 17726 kPa, x2 = 0.8998 | 169.823 kg/m3
275 K, 2005.1 kPa, x2 = 0.8998 | 15.7688 kg/m3
275 K, 4053.8 kPa, x2 = 0.8998 | 33.2951 kg/m3
275 K, 6055.4 kPa, x2 = 0.8998 | 51.8523 kg/m3
275 K, 8023.2 kPa, x2 = 0.8998 | 71.384 kg/m3
275 K, 10028 kPa, x2 = 0.8998 | 92.2879 kg/m3
275 K, 11444 kPa, x2 = 0.8998 | 107.355 kg/m3
275 K, 13322 kPa, x2 = 0.8998 | 127.156 kg/m3
299.91 K, 2564.5 kPa, x2 = 0.8 | 19.5987 kg/m3 and 19.5993 kg/m3
299.91 K, 4995 kPa, x2 = 0.8 | 39.306 kg/m3
